Reference: patent US6340670B1, “Acetal benzylmaltosides as inhibitors of smooth muscle cell proliferation” (American Home Products Corporation, priority 1998, dated 2002)

test system: Porcine Smooth Muscle Cell; test: Effects of Compounds on Cell Proliferation Using 3H Thymidine Incorporation; assay type: cell-based; details: @ 50 μM, control (100%) = maximally stimulated cells
Procedure: Effects of Compounds on Cell Proliferation Using ^3H Thymidine Incorporation
Human and porcine smooth muscle cells were tested in early passage (generally passage 3-7) at sub-confluent conditions. Cultures were grown in 16 mm (24 well) multi-well culture dishes in medium 199 supplemented with 10% fetal bovine serum and 2% antibiotic/antimycotic. At sub-confluence, the cells were placed in a defined serum free medium (AIM-V; Gibco) for 24-48 h prior to initiating the experimental protocol.
Compounds were added to each well at 50 fold dilution (20 μL/well) and the plates were incubated for 24-36 h at 37° C. in 5% CO2. Compounds were initially dissolved in 50% ethanol and serially diluted into media. Compounds were routinely evaluated at concentrations from 1 to 100 μM. As a control, grade II porcine intestinal mucosal heparin (sodium salt) was routinely evaluated in all cell preparations at concentrations from 0.1 to 100 μg/mL.
At the completion of the test procedure, plates were placed on ice, washed three times with ice cold phosphate buffered saline (PBS) and incubated in ice cold 10% trichloroacetic acid (TCA) got 30 min to remove acid soluble proteins. Solution was transferred to scintillation vials containing 0.4 N HCl (500 μL/vial to neutralize NaOH) and each well was rinsed two times with water (500 μL) for a total volume of 2 mL/vial.
Data was obtained, in triplicate, for both control and experimental samples. Control (100%) data was obtained from maximally stimulated cells, as the result of growth factor or serum stimulation. Experimental data was obtained from cells maximally stimulated with growth factor or serum and treated with compound. Data are expressed as an IC50 or percent inhibition in Table I below.

Compared with CC(=O)N(C)c1cc(CO[C@@H]2O[C@H](CO)[C@@H](O[C@H]3O[C@@H]4COC(c5ccccc5)O[C@H]4[C@H](O)[C@H]3O)[C@H](O)[C@H]2O)ccc1Cl (stereo partly drawn) [Example 78, N-{5-[(4′,6′-O-Benzylidene-β-D-maltosyl)-oxymethyl]-2-chloro-phenyl}-N-methyl-acetamide], CCC1OCC2OC(OC3C(CO)OC(OCc4ccc(Cl)c(NC(C)=O)c4)C(O)C3O)C(O)C(O)C2O1 [Example 4, N-{2-Chloro-5-[(4′,6′-O-propylidene-β-D-maltosyl)-oxy-methyl]-pheny}-acetamide] is higher in “Porcine Smooth Muscle Cell Antiproliferation, percent inhibition” value: 8% @ 50 for the first, 16% @ 50 for the second.

In the case of CC(=O)Nc1cc(COC2OC(CO)C(OC3OC4COC(CCC#N)OC4C(O)C3O)C(O)C2O)ccc1Cl [Example 18, N-{2-Chloro-5[-(4′,6′-O-((1R)-3-cyano-propylidene)-β-D-maltosyloxy)-methyl]-phenyl}-acetamide], the “Porcine Smooth Muscle Cell Antiproliferation, percent inhibition” value is reported as 43% @ 50.

same assay, conditions: serum/growth factor stimulated cells, 24-36 h incubation, read-out: Porcine Smooth Muscle Cell Antiproliferation IC50

Compared with CC(=O)Nc1cc(COC2OC(CO)C(OC3OC4COC(c5ccncc5)OC4C(O)C3O)C(O)C2O)ccc1Cl [Example 22, N-(2-Chloro-5-{[4′,6′-O-(4-pyridinemethylidene)-β-D-maltosyl]-oxy-methyl}-phenyl)-acetamide], O=C(Nc1cc(CO[C@@H]2O[C@H](COC(=O)c3ccccc3)[C@@H](O[C@H]3O[C@@H]4CO[C@@H](c5ccccc5)O[C@H]4[C@H](O)[C@H]3O)[C@H](O)[C@H]2O)ccc1Cl)c1cccnc1 [Example 62, (R)-N-[5-[[[6-O-Benzoyl-4-O-[4′,6′-O-(phenylmethylene)-α-D-glucopyranosyl]-β-D-glucopyranosyl]oxy]methyl]-2-chlorophenyl]-3-pyridinecarboxamide] is 240-fold lower in IC50: 5530 nM for the first, 23 nM for the second.

First: O=C(Nc1cc(CO[C@@H]2O[C@H](COC(=O)c3ccccc3I)[C@@H](O[C@H]3O[C@@H]4COC(c5ccccc5)O[C@H]4[C@H](O)[C@H]3O)[C@H](O)[C@H]2O)ccc1Cl)c1ccc(C(=O)c2ccccc2)cc1 (stereo partly drawn) [Example 72, 4-Benzoyl-N-{5-[(4′,6′-O-benzylidene-6-O-(2-iodo)-benzoyl-β-D-maltosyl)-oxy-methyl]-2-chloro-phenyl}-benzamide]
Second: COC(=O)Nc1cc(COC2OC(CO)C(OC3OC4COC(c5ccccc5)OC4C(O)C3O)C(O)C2O)ccc1Cl [Example 80, N-{5-[(4′,6′-O-Benzylidene-β-D-maltosyl)-oxy-methyl]-2-chloro-phenyl}-carbamic acid methyl ester]
The IC50 of the first is 470-fold lower: 16 nM for the first, 7570 nM for the second.

Going from CC(=O)N(C)c1cc(COC2OC(COC(=O)c3ccccc3)C(OC3OC4COC(c5ccccc5)OC4C(O)C3O)C(O)C2O)ccc1Cl [Example 79, N-{5-[(6-O-Benzoyl-4′,6′-O-benzylidene-β-D-maltosyl)-oxymethyl]-2-chloro-phenyl}-N-methyl-acetamide] to C=CCCC(=O)Nc1cc(CO[C@@H]2O[C@H](COC(=O)c3ccccc3)[C@@H](O[C@H]3O[C@@H]4COC(c5ccccc5)O[C@H]4[C@H](O)[C@H]3O)[C@H](O)[C@H]2O)ccc1Cl (stereo partly drawn) [Example 66, N-{2-Chloro-5-[(6-O-benzoyl-4′,6′-O-benzilidene-β-D-maltosyl)-oxy-methyl]-phenyl}-pent-4-enamide], the IC50 falls from 2360 nM to 180 nM (13-fold). The second is the more potent here.

Compared with C[C@H](N)C(=O)Nc1cc(CO[C@@H]2O[C@H](COC(=O)c3ccccc3)[C@@H](O[C@H]3O[C@@H]4COC(c5ccccc5)O[C@H]4[C@H](O)[C@H]3O)[C@H](O)[C@H]2O)ccc1Cl (stereo partly drawn) [Example 77, N′-{5-[(6-O-benzoyl-4′,6′-O-benzylidene-β-D-maltosyl)-oxy-methyl]-2-chloro-phenyl}-L-alaninamide], CC(=O)Nc1cc(COC2OC(COC(=O)c3ccccc3)C(OC3OC4COC(CCC#N)OC4C(O)C3O)C(O)C2O)ccc1Cl [Example 19, N-{5-{[6-O-Benzoyl-4′,6′-O-((1R)-3-cyanopropylidene)-β-D-maltosyloxy]-methyl}-2-chloro-phenyl}-acetamide] is 81-fold lower in IC50: 81 nM for the first, 1 nM for the second.

Going from CC(=O)Nc1cc(COC2OC(COC(=O)c3ccc(Cl)c([N+](=O)[O-])c3)C(OC3OC4COC(c5ccccc5)OC4C(O)C3O)C(O)C2O)ccc1Cl [Example 38, (R)-N-[2-Chloro-5-[[[6-O-(4-chloro-3-nitrobenzoyl)-4-O-[4,6O-(phenylmethylene)-α-D-glucopyranosyl]-β-D-glucopyranosyl]oxy]methyl]phenyl]acetamide] to O=C(Nc1cc(COC2OC(COC(=O)c3ccccc3)C(OC3OC4COC(c5ccccc5)OC4C(O)C3O)C(O)C2O)ccc1Cl)c1ccc(C(=O)c2ccccc2)cc1 [Example 71, 4-Benzoyl-N-{5-[(6-benzoyl-oxy-4′,6′-O-benzylidene-β-D-maltosyl)-oxy-methyl]-2-chloro-phenyl}-benzoic acid amide], the IC50 falls from 187 nM to 50 nM (3.7-fold). The second is the more potent here.

Compared with O=C(OCC1OC(OCc2ccc(Cl)c(NC(=O)c3ccco3)c2)C(O)C(O)C1OC1OC2COC(c3ccccc3)OC2C(O)C1O)c1ccccc1 [Example 64, Furan-2-carboxylic acid {5-[(6-O-benzoyl-4′,6′-O-benzylidene-β-D-maltosyl)-oxy-methyl]-2-chloro-phenyl}-amide], CC(NC(=O)OCC1c2ccccc2-c2ccccc21)C(=O)Nc1cc(COC2OC(COC(=O)c3ccccc3)C(OC3OC4COC(c5ccccc5)OC4C(O)C3O)C(O)C2O)ccc1Cl [Example 76, N-(9H-Fluoren-9ylmethoxycarbonyl)-N′-{5-[(6-O-benzoyl-4′,6′-O-benzylidene-β-D-maltosyl)-oxy-methyl]-2-chloro-phenyl}-L-alaninamide] is 3.1-fold higher in IC50: 50 nM for the first, 156 nM for the second.

First: CC(=O)Nc1cc(COC2OC(CO)C(OC3OC4COC(Cc5ccccc5)OC4C(O)C3O)C(O)C2O)ccc1Cl [Example 16, N-{5-[(4′,6′-O-((1R)-2-Phenyl-ethylidene)-β-D-maltosyloxy)-methyl]-2-chloro-phenyl}-acetamide]
Second: CC(=O)Nc1cc(COC2OC(COC(=O)c3cccnc3)C(OC3OC4COC(c5ccccc5)OC4C(O)C3O)C(O)C2O)ccc1Cl (stereo not shown) [Example 54, Nicotinic acid 6-(3-acetylamino-4-chloro-benzyloxy)-3-(7,8-dihydroxy-2-phenyl-hexahydro-pyrano[32-d][1,3]dioxin-6-yloxy)-4,5-dihydroxy-tetrahydro-pyran-2-ylmethyl ester]
The IC50 of the first is 77-fold higher: 16300 nM for the first, 211 nM for the second.

CC(=O)Nc1cc(COC2OC(COC(=O)Cc3ccccc3)C(OC3OC4COC(c5ccccc5)OC4C(O)C3O)C(O)C2O)ccc1Cl [Example 46, (R)-N-[-2-Chloro-5-[[[6-O-(phenylacetyl)-4-O-[4,6-O-(phenylmethylene)-α-D-glucopyranosyl]-β-D-glucopyranosyl]oxy]methyl]phenyl]acetamide] and CC(=O)Nc1cc(COC2OC(COC(=O)c3cccc(C(F)(F)F)c3)C(OC3OC4COC(c5ccccc5)OC4C(O)C3O)C(O)C2O)ccc1Cl [Example 42, (R)-N-[2-Chloro-5-[[[6-O-(3-trifluoromethylbenzoyl)-4-O-[4,6O-(phenyl-methylene)-α-D-glucopyranosyl]-β-D-glucopyranosyl]oxy]methyl]phenyl]acetamide] are within 1.5-fold of each other in IC50: 32 nM for the first, 27 nM for the second.

Compared with “N-{5-[(6-O-(3-Benzyl-1-oxo-propyl)-4′,6′-O-benzylidene-β-D-maltosyl)-oxy-methyl]-2-chloro-phenyl}-carbamic acid methyl ester [Example 82]”, COC(=O)Nc1cc(COC2OC(COC(=O)c3ccccc3)C(OC3OC4COC(c5ccccc5)OC4C(O)C3O)C(O)C2O)ccc1Cl [Example 81, N-{5-[(6-O-Benzoyl-4′,6′-O-benzylidene-β-D-maltosyl)-oxy-methyl]-2-chloro-phenyl}-carbamic acid methyl ester] is 25-fold lower in IC50: 352 nM for the first, 14 nM for the second. The second is the more potent here.

First: CC(=O)Nc1cc(COC2OC(COC(=O)c3ccc(C#N)cc3)C(OC3OC4COC(c5ccccc5)OC4C(O)C3O)C(O)C2O)ccc1Cl [Example 40, (R)-N-[2-Chloro-5-[[[6-O-(4-cyanobenzoyl)-4-O-[4,6O-(phenylmethylene)-α-D-glucopyranosyl]-β-D-glucopyranosyl]oxy]methyl]phenyl]acetamide]
Second: CC(=O)OC1C(OC2C(COC(=O)c3ccccc3)OC(OCc3ccc(Cl)c([N+](=O)[O-])c3)C(OC(C)=O)C2OC(C)=O)OC2COC(c3ccccc3)OC2C1OC(C)=O [Example 31, (R)-(4-Chloro-3-nitrophenyl)methyl-2,3-di-O-acetyl-6-O-benzoyl-4-O-[2,3-di-O-acetyl-4,6-O-(phenylmethylene)-α-D-glucopyranosyl]-β-D-glucopyranoside]
The IC50 of the first is 4.1-fold lower: 92 nM for the first, 380 nM for the second. The first is the more potent here.

Compared with CC(=O)Nc1cc(COC2OC(CO)C(OC3OC4COC(c5ccc([N+](=O)[O-])cc5)OC4C(O)C3O)C(O)C2O)ccc1Cl [Example 10, N-(2-Chloro-5-{[4′,6′-O-(4-nitro)-benzylidene-β-D-maltosyl]-oxy-methyl}-phenyl)-acetamide], CC(=O)Nc1cc(CO[C@@H]2O[C@H](COC(=O)c3ccccc3)[C@@H](O[C@@H]3O[C@@H]4CO[C@@H](c5ccccc5)O[C@H]4[C@H](OC(C)=O)[C@H]3OC(C)=O)[C@H](OC(C)=O)[C@H]2OC(C)=O)ccc1Cl [Example 27, (R)-N-[2-Chloro-5-[[[2,3-di-O-acetyl-6-O-benzoyl-4-O-[2,3-di-O-acetyl-4,6-O-(phenylmethylene)-β-D-glucopyranoysl]-β-D-glucopyranosyl]oxy]-methyl]-phenyl]acetamide] is 270-fold lower in IC50: 19200 nM for the first, 70 nM for the second. The second is the more potent here.
